SMILES strings stand for the structures.

This note sets out measurements from patent US8796289B2 (AbbVie Inc., priority 2011, dated 2014).

GST-tagged-Wee1 kinase, sequence (P30291 whole entry): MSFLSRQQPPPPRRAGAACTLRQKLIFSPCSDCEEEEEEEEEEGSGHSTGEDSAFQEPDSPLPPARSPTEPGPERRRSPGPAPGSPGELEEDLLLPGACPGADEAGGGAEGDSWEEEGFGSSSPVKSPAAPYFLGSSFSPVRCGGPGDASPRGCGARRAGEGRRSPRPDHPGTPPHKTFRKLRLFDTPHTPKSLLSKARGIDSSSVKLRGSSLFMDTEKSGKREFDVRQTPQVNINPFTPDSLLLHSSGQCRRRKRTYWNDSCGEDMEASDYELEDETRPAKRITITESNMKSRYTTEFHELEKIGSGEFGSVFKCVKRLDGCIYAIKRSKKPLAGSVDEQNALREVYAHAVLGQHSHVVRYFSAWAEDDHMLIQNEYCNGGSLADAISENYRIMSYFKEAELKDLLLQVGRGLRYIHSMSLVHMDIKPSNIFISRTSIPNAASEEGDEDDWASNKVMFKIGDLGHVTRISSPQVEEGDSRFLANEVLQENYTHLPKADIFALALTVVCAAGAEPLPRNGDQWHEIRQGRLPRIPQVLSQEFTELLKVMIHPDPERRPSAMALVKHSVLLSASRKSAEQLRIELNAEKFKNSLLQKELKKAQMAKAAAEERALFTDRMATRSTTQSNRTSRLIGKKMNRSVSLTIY

This assay has as its target GST-tagged-Wee1 kinase (Homo sapiens, UniProt P30291). As to the kind of experiment: Wee1 time-resolved fluorescence equilibrium binding assay (displacement of Oregon Green-labeled ATP-competitive kinase probe). Here is the method: Wee1 kinase was assayed using a time-resolved fluorescence equilibrium binding assay monitoring displacement of a rapidly reversible Oregon Green-labeled ATP-competitive kinase probe (N-(2-(2-(2-(4-(4-(5-chloro-4-(2-(1-hydroxycyclobutyl)thiazol-5-yl)-1H-pyrrolo[2,3-b]pyridin-2-yl)phenyl)piperazin-1-yl)ethoxy)ethoxy)ethyl)-2′,7′-difluoro-3′,6′-dihydroxy-3-oxo-3H-spiro[isobenzofuran-1,9′-xanthene]-5-carboxamide) by competitive Wee1 inhibitors.
A word on the Ki: it is the dissociation constant of the complex between target and ligand, obtained from inhibition or displacement. A lower Ki goes with higher affinity. On to `CN1CCN(c2ccc(Nc3ncc4c(=O)n(-c5ccccc5Cl)nc(-c5cccnc5Cl)c4n3)cc2)CC1` [Example 80, 6-(2-chlorophenyl)-8-(2-chloropyridin-3-yl)-2-{[4-(4-methylpiperazin-1-yl)phenyl]amino}pyrimido[4,5-d]pyridazin-5(6H)-one], for which the affinity corresponds to a Ki of 27 nM.

In turn, `CN1CCN(c2ccc(Nc3ncc4c(=O)n(-c5ccccc5Cl)nc(-c5ccncc5)c4n3)cc2)CC1` [Example 155, 6-(2-chlorophenyl)-2-{[4-(4-methylpiperazin-1-yl)phenyl]amino}-8-(pyridin-4-yl)pyrimido[4,5-d]pyridazin-5(6H)-one] showed an inhibition constant (Ki) of 0.4 nM.

The compound `CN1CCN(c2ccc(Nc3ncc4c(=O)n(-c5c(Cl)cccc5Cl)nc(CO)c4n3)cc2)CC1` [Example 431, 6-(2,6-dichlorophenyl)-8-(hydroxymethyl)-2-{[4-(4-methylpiperazin-1-yl)phenyl]amino}pyrimido[4,5-d]pyridazin-5(6H)-one] showed a Ki of 0.42 nM.

Regarding `COCc1nn(-c2c(Cl)cccc2Cl)c(=O)c2cnc(Nc3ccc4c(c3)CN(C)CC43CC3)nc12` [Example 429, 6-(2,6-dichlorophenyl)-8-(methoxymethyl)-2-[(2′-methyl-2′,3′-dihydro-1′H-spiro[cyclopropane-1,4′-isoquinolin]-7′-yl)amino]pyrimido[4,5-d]pyridazin-5(6H)-one], the Ki came to 0.48 nM.

Consider `CC(C)N1CCN(c2ccc(Nc3ncc4c(=O)n(-c5ccccc5Cl)nc(-c5ccccc5)c4n3)cc2)CC1` [Example 131, 6-(2-chlorophenyl)-2-{[4-(4-isopropylpiperazin-1-yl)phenyl]amino}-8-phenylpyrimido[4,5-d]pyridazin-5(6H)-one], for which the affinity corresponds to a Ki of 0.5 nM.

In turn, `CN1CCN(c2ccc(Nc3ncc4c(=O)n(-c5c(Cl)cccc5Cl)nc(-c5cccc(C(=O)N6CCCCC6)c5)c4n3)cc2)CC1` [Example 194, 6-(2,6-dichlorophenyl)-2-{[4-(4-methylpiperazin-1-yl)phenyl]amino}-8-[3-(piperidin-1-ylcarbonyl)phenyl]pyrimido[4,5-d]pyridazin-5(6H)-one] came in with an inhibition constant Ki of under 1 nM.

Consider `C=CCn1nc(CCc2ccccc2)c2nc(Nc3ccc(N4CCN(C)CC4)cc3)ncc2c1=O` [Example 7, 6-allyl-2-{[4-(4-methylpiperazin-1-yl)phenyl]amino}-8-(2-phenylethyl)pyrimido[4,5-d]pyridazin-5(6H)-one], for which the Ki worked out at 250 nM.

Consider `O=c1c2cnc(Nc3ccc(N4CCN(C5CCC5)CC4)cc3)nc2c(-c2ccncc2)nn1-c1c(Cl)cccc1Cl` [Example 301, 2-{[4-(4-cyclobutylpiperazin-1-yl)phenyl]amino}-6-(2,6-dichlorophenyl)-8-(pyridin-4-yl)pyrimido[4,5-d]pyridazin-5(6H)-one], for which the Ki amounted to 2.7 nM.

`CN1CCN(c2ccc(Nc3ncc4c(=O)n(-c5c(Cl)cccc5Cl)nc(-c5ccnc(C(C)(C)O)c5)c4n3)cc2)CC1` [Example 250, 6-(2,6-dichlorophenyl)-8-[2-(2-hydroxypropan-2-yl)pyridin-4-yl]-2-{[4-(4-methylpiperazin-1-yl)phenyl]amino}pyrimido[4,5-d]pyridazin-5(6H)-one] came in with an inhibition constant (Ki) of 0.2 nM.

Turning to `COC(=O)c1ccc(-c2nn(-c3c(Cl)cccc3Cl)c(=O)c3cnc(Nc4ccc(N5CCN(C)CC5)cc4)nc23)cc1` [Example 277, methyl 4-[6-(2,6-dichlorophenyl)-2-{[4-(4-methylpiperazin-1-yl)phenyl]amino}-5-oxo-5,6-dihydropyrimido[4,5-d]pyridazin-8-yl]benzoate], the inhibitory constant (Ki) was 1.2 nM.

Consider `CN1CCN(CCn2cc(-c3nn(-c4c(Cl)cccc4Cl)c(=O)c4cnc(Nc5ccc(N6CCN(C)CC6)cc5)nc34)cn2)CC1` [Example 214, 6-(2,6-dichlorophenyl)-8-{1-[2-(4-methylpiperazin-1-yl)ethyl]-1H-pyrazol-4-yl}-2-{[4-(4-methylpiperazin-1-yl)phenyl]amino}pyrimido[4,5-d]pyridazin-5(6H)-one], for which the affinity, expressed as Ki, was 0.4 nM.

Take `Cc1ccccc1-n1nc(-c2ccccc2)c2nc(Nc3ccc4c(c3)CN(C)CC43CC3)ncc2c1=O` [Example 173, 2-[(2′-methyl-2′,3′-dihydro-1′H-spiro[cyclopropane-1,4′-isoquinolin]-7′-yl)amino]-6-(2-methylphenyl)-8-phenylpyrimido[4,5-d]pyridazin-5(6H)-one]: the inhibition constant Ki amounted to 0.4 nM.

As to `CN1CCN(c2ccc(Nc3ncc4c(=O)n(-c5ccccn5)nc(C5CC(F)(F)C5)c4n3)cc2)CC1` [Example 197, 8-(3,3-difluorocyclobutyl)-2-{[4-(4-methylpiperazin-1-yl)phenyl]amino}-6-(pyridin-2-yl)pyrimido[4,5-d]pyridazin-5(6H)-one], the affinity corresponds to a Ki of 100 nM.

Compound `Cc1ccccc1-n1nc(-c2ccccc2)c2nc(Nc3ccc(CN(C)C)cc3)ncc2c1=O` [Example 111, 2-({4-[(dimethylamino)methyl]phenyl}amino)-6-(2-methylphenyl)-8-phenylpyrimido[4,5-d]pyridazin-5(6H)-one] had a Ki of 2.5 nM.

Compound `CCc1nn(-c2c(Cl)cccc2Cl)c(=O)c2cnc(Nc3ccc4c(c3)CCNC4(C)C)nc12` [Example 466, 6-(2,6-dichlorophenyl)-2-[(1,1-dimethyl-1,2,3,4-tetrahydroisoquinolin-6-yl)amino]-8-ethylpyrimido[4,5-d]pyridazin-5(6H)-one] registered an inhibition constant Ki of 0.34 nM.

Regarding `CN1CCN(c2ccc(Nc3ncc4c(=O)n(-c5c(Cl)cccc5Cl)nc(-c5ccnc(Cl)c5)c4n3)cc2)CC1` [Example 260, 8-(2-chloropyridin-4-yl)-6-(2,6-dichlorophenyl)-2-{[4-(4-methylpiperazin-1-yl)phenyl]amino}pyrimido[4,5-d]pyridazin-5(6H)-one], the affinity, expressed as Ki, was 0.2 nM.

For `Cc1ccccc1-n1nc(-c2ccccc2)c2nc(Nc3ccc(N4CCN(C(C)C)CC4)cc3)ncc2c1=O` [Example 134, 2-{[4-(4-isopropylpiperazin-1-yl)phenyl]amino}-6-(2-methylphenyl)-8-phenylpyrimido[4,5-d]pyridazin-5(6H)-one], the inhibition constant Ki was determined as 0.6 nM.

`Cc1nn(-c2c(Cl)cccc2Cl)c(=O)c2cnc(Nc3cccc(N4CCN(C)CC4)c3)nc12` [Example 511, 6-(2,6-dichlorophenyl)-8-methyl-2-{[3-(4-methylpiperazin-1-yl)phenyl]amino}pyrimido[4,5-d]pyridazin-5(6H)-one]: the inhibition constant (Ki) turned out to be 0.46 nM.

With `CC(C)n1nc(-c2ccccn2)c2nc(Nc3ccc4c(c3)CN(C)CC43CC3)ncc2c1=O` [Example 274, 2-[(2′-methyl-2′,3′-dihydro-1′H-spiro[cyclopropane-1,4′-isoquinolin]-7′-yl)amino]-6-(propan-2-yl)-8-(pyridin-2-yl)pyrimido[4,5-d]pyridazin-5(6H)-one], the inhibition constant Ki came out at 179 nM.

For `CCNCCn1cc(-c2nn(-c3c(Cl)cccc3Cl)c(=O)c3cnc(Nc4ccc(N5CCN(C)CC5)cc4)nc23)cn1` [Example 202, 6-(2,6-dichlorophenyl)-8-{1-[2-(ethylamino)ethyl]-1H-pyrazol-4-yl}-2-{[4-(4-methylpiperazin-1-yl)phenyl]amino}pyrimido[4,5-d]pyridazin-5(6H)-one], the Ki was 0.3 nM.

Regarding `CN1CCN(c2ccc(Nc3ncc4c(=O)n(-c5c(Cl)cncc5Cl)nc(-c5cn(C)cn5)c4n3)cc2)CC1` [Example 361, 6-(3,5-dichloropyridin-4-yl)-8-(1-methyl-1H-imidazol-4-yl)-2-{[4-(4-methylpiperazin-1-yl)phenyl]amino}pyrimido[4,5-d]pyridazin-5(6H)-one], the inhibition constant Ki was found to be 4.4 nM.
